Test [1] deals with L6 myotubes. The test is described as follows: Protein degradation assay ([3H]Tyr release) in dexamethasone-treated myotubes. In kind it is cell-based, rat. The settings on record: pre-incubation HMB 25 µM or Leu 10 mM 48 hours, then 48 hours with dexamethasone 5 µM. The protocol:
(§1) Cell culture. The L6.C11 rat skeletal muscle myoblast line (ECACC No. 92102119) was grown in DMEM containing 10% (v/v) FCS, 2 mmol/l Glutamine plus 100 units/ml penicillin and 0.1 mg/ml streptomycin (Sigma) in an atmosphere of air/CO2 (95:5) and maintained at subconfluent densities in growth media. Cells were differentiated to myotubes by exchanging the growth medium for a differentiation medium consisting of DMEM containing 2% (v/v) FCS for 3-4 days (>50% fusion into multinucleated myotubes).
(§2) Protein synthesis and degradation assays. […] At the completion of the labeling period, cultures were rinsed three times with PBS, cells were lysed with sodium desoxycholate 0.1%/NaOH 0.1 M and protein was precipitated with cold 10% TCA in PBS overnight, rinsed once with cold 10% TCA, solubilized in NaOH 0.5 M, neutralized with HCl 0.5 M and mixed with scintillation fluid, and radioactivity was determined using a scintillation counter. […] Degradation rates were determined according to Hong & Forsberg, 1995.
To study the effects of HMB and Leu on protein degradation induced by dexamethasone, L6 differentiated myotubes were first differentiated to myotubes for 3 days in 2% FBS, and then the medium was changed to 10% FBS for the remainder of the experiment. […] After the incubation, protein degradation for each condition was calculated. […] Results are expressed as mean ± SEM of six independent experiments.

Test [2] has as its system L6 myotubes. The test can be described thus: Protein synthesis assay ([3H]Tyr incorporation) in dexamethasone-treated myotubes. The class given is cell-based, rat. The settings on record: HMB 25 µM or Leu 10 mM, 2 hours plus 1 hour labeling, dexamethasone 5 µM. Here is the method:
as §1, §2
Particularly, L6 myotubes were treated with HMB (25 µM) or Leu (10 mM) for 2 hours in the presence or absence of dexamethasone (5 µM). […] After the incubation, protein synthesis for each condition was calculated. […] Results are expressed as means ± SEM of six independent experiments.

The subject of test [3] is PKB/Akt. The test is described as follows: Western blot of phospho-PKB/Akt vs total PKB/Akt in L6 myotubes. The settings on record: basal, without dexamethasone; HMB 25 µM or Leu 10 mM, 30 minutes. The class given is cell-based, rat. The protocol: (§3) Protein phosphorylation analysis. L6 myotubes were incubated with HMB or Leu in the absence or presence of dexamethasone for 30 minutes. After treatment, plates were flash frozen in liquid nitrogen and were scraped with 50 µl/60 mm/plate of cold 30 mmol/L Tris-HCl pH 7.4, 25 mmol/L NaCl, 1% (v/v) Triton X-100, 0.1% SDS, 10 mmol/L sodium fluoride, 10 mmol/L sodium pyrophosphate, 1 mmol/L sodium orthovanadate, 1 mmol/L EGTA, 20 nmol/L okadaic acid, 10 µg/ml aprotinin, 10 µg/ml leupeptin, 10 µg/ml pepstatin. After 10 minutes on ice, extracts were centrifuged at 13000 g for 10 minutes at 4°C. Protein concentration from the supernatants was measured using the Bio-Rad Protein Assay. […]
(§4) L6 Myoblasts were differentiated to myotubes for 3 days in 2% FBS. […] Cells were lysed in phosphorylation buffer and analyzed by Western blot using an anti-phospho PKB/Akt antibody (FIG. 3A), anti-phospho mTOR antibody (FIG. 3B), or anti-atrogin-1 antibody (FIG. 3C). […] The lower panels of each of FIGS. 3A-3C show densitometric quantification of: phospho-PKB/total PKB protein abundance (FIG. 3A); phospho-mTOR/total mTOR protein abundance (FIG. 3B); or atrogin-1 protein abundance using Histone H3 (FIG. 3C) as a reference control. Results are expressed as means ± SEM of four independent experiments.

The subject of test [4] is mTOR. The test is described as follows: Western blot of phospho-mTOR vs total mTOR in L6 myotubes. The class given is cell-based, rat. The settings on record: basal, without dexamethasone; HMB 25 µM or Leu 10 mM, 30 minutes. Here is the method: as §3, §4
Test [5] relates to FOXO. The test is described as follows: FOXO-responsive luciferase reporter assay in L6 cells. The class given is cell-based, rat. The source says:
(§5) Reporter gene constructs. For the analysis of rat Ubiquitin (UbC) promoter, a 417 bp fragment of 417 bp flanking the transcription start point was amplified from rat genomic DNA. This fragment was similar to those that have been characterized for the human and rat promoters. The sequences of all constructs were verified by automated DNA sequencing. The Cignal FOXO Reporter (luc) kit, CCS-1022L, was provided by SABiosciences and contains a mixture of inducible FOXO-responsive firefly luciferase construct and constitutively expressing Renilla luciferase construct (40:1).
(§6) DNA transfection assays. For transfection experiments, cells were used at 80-90% confluence. […] Luciferase activity was determined using standard reagents (Dual Luciferase method, Promega) in a luminometer (Sirius L, Berthold Technologies, Bad Wildbad, Germany) and results were standardized for Renilla luciferase activity. […] To allow comparison of the expression patterns, the data were expressed as relative changes in luciferase activity and were normalized to a value of 100%.
To address whether the down-regulation of atrogin-1 in HMB- pretreated cells was accompanied by an underlying regulation of the FOXO transcription factor, the total FOXO expression (monitored by using FOXO-luciferase reporter gene activity) and the amount FOXO3a transcription factor in the nucleus were analyzed. […]

The subject of test [6] is FOXO3a. The test is described as follows: Western blot of FOXO3a in nuclear extracts of L6 cells (Histone H3 reference). In kind it is cell-based, rat. Here is the method: Preparation of nuclear extracts. Nuclear extracts from L6 cells were prepared following Bhavsar et al. Protein concentration was measured in nuclear extracts using the Bio-Rad Protein Assay kit. Aliquots of the extracts (40 µg) were resolved by 10% SDS-PAGE and analyzed by immunoblotting using a 1:1000 dilution of polyclonal anti-FOXO3a or anti-Histone H3 antibodies. The antigen-antibody complexes were detected with HRP-conjugated secondary antibodies using a chemiluminescence detection system (Bio-Rad).
To address whether the down-regulation of atrogin-1 in HMB- pretreated cells was accompanied by an underlying regulation of the FOXO transcription factor, the total FOXO expression (monitored by using FOXO-luciferase reporter gene activity) and the amount FOXO3a transcription factor in the nucleus were analyzed. L6 Myoblasts were differentiated to myotubes for 3 days in 2% FBS. After the differentiation process, medium was changed to 10% FBS for the remainder of the experiment. Myotubes were incubated in the presence or absence of HMB (25 µM) or Leu (10 mM) for 48 hours. […]
Further, L6 untransfected cells were treated as above, nuclear extracts were obtained as described in the material and methods section and analyzed by Western blot using an anti-FOXO3 antibody. […] Results are expressed as means ± SEM of four independent experiments.
(A western blot detects proteins with antibodies after separation by electrophoresis.)

Test [7] relates to ERK1/2. The test is described as follows: Western blot of phospho-ERK1/2 vs total ERK1/2 in L6 myotubes. The class given is cell-based, rat. The settings on record: HMB 25 µM or Leu 10 mM, 30 minutes. The protocol:
Protein phosphorylation analysis. L6 myotubes were incubated with HMB or Leu in the absence or presence of dexamethasone for 30 minutes. After treatment, plates were flash frozen in liquid nitrogen and were scraped with 50 µl/60 mm/plate of cold 30 mmol/L Tris-HCl pH 7.4, 25 mmol/L NaCl, 1% (v/v) Triton X-100, 0.1% SDS, 10 mmol/L sodium fluoride, 10 mmol/L sodium pyrophosphate, 1 mmol/L sodium orthovanadate, 1 mmol/L EGTA, 20 nmol/L okadaic acid, 10 µg/ml aprotinin, 10 µg/ml leupeptin, 10 µg/ml pepstatin. After 10 minutes on ice, extracts were centrifuged at 13000 g for 10 minutes at 4°C. Protein concentration from the supernatants was measured using the Bio-Rad Protein Assay. Proteins (25-40 µg) were separated by SDS-PAGE and immunoblotted with selected antibodies; the immunoblots were developed by chemiluminescence detection.
Taking into account that phosphorylation of FOXO3a by ERK is a required step for FOXO3a ubiquitination and subsequent proteosomal degradation of this transcription factor in the cytoplasm, the effect of HMB and Leu on ERK activation was also analyzed. Specifically, L6 Myoblasts were differentiated to myotubes for 3 days in 2% FBS. […] Cells were lysed in phosphorylation buffer and analyzed by Western blot using an anti-phospho ERK1/2 antibody. […] Results are expressed as means ± SEM of four independent experiments.

In test [8] the test system is UbC promoter. The test is described as follows: pGL3-UbC luciferase reporter assay in L6 myotubes. The settings on record: pre-treatment HMB 25 µM or Leu 10 mM 48 hours, then dexamethasone 5 µM 48 hours. The class given is cell-based, rat.
Excerpt: as §5, §6
Additionally, the effect of HMB and Leu on UbC promoter implicated in protein degradation induced by dexamethasone was analyzed. […] Results are expressed as means ± SEM of six independent experiments.
A general note: A reporter such as luciferase makes a cellular process visible.

The test system of test [9] is atrogin-1. The test can be described thus: cells. In kind it is cell-based. The settings on record: Rattus norvegicus, L6, 48 h, read-out: increase in amount of atrogin-1. Here is the method: Atrogin-1 analysis. L6 myotubes were pre-incubated with HMB 25 µM or Leu 10 mM for 48 hours. Then, dexamethasone 5 µM was added for another 48 hours. After treatment, cells were lysed with RIPA buffer (Sigma) supplemented with inhibitor protease cocktail (Sigma). Lysates were sonicated and protein concentration was measured using the Bio-Rad Protein Assay. Proteins (40 µg) were separated by SDS-PAGE and immunoblotted with anti-atrogin antibody.
L6 Myoblasts were differentiated to myotubes for 3 days in 2% FBS. Cells were deprived of FBS for 12 hours and incubated with HMB (25 µM) or Leu (10 mM) and insulin (100 nmol/l) in the absence or presence of dexamethasone (5 µM) for 30 minutes. Cells were lysed in phosphorylation buffer and analyzed by Western blot using an anti-phospho PKB/Akt antibody (FIG. 3A), anti-phospho mTOR antibody (FIG. 3B), or anti-atrogin-1 antibody (FIG. 3C). As a loading control, results were normalized using an anti-total PKB/Akt antibody, anti-total mTOR antibody, or an anti-Histone H3 antibody (see FIGS. 3A-3C, respectively). […] The lower panels of each of FIGS. 3A-3C show densitometric quantification of: phospho-PKB/total PKB protein abundance (FIG. 3A); phospho-mTOR/total mTOR protein abundance (FIG. 3B); or atrogin-1 protein abundance using Histone H3 (FIG. 3C) as a reference control. Results are expressed as means ± SEM of four independent experiments.

[10] abbreviates: basal conditions, absence of dexamethasone, HMB 25 µM or Leu 10 mM.
The mark [11] stands for this setting: pre-treatment HMB 25 µM or Leu 10 mM 48 hours, then dexamethasone 5 µM 12 hours.

For `CC(C)(O)CC(=O)O` [HMB, beta-hydroxy-beta-methylbutyrate], the inhibition at 25 µM in test [1] (Rattus norvegicus, L6, read-out: decrease of proteolysis induced by dexamethasone) is around 60%.
As to `CC(C)C[C@H](N)C(=O)O` [Leu, Leucine], the “decrease of proteolysis induced by dexamethasone” value in [1] is “did not significantly affect glucocorticoid-induced protein degradation”. Also, the “prevention of the decrease in protein synthesis induced by dexamethasone” value in test [2] was “but not Leu”. In addition, in [3], the “phosphorylative state of Akt” value is “did not have influence on the phosporylative state of Akt and mTOR”. Moreover, the “phosphorylative state of mTOR” value in test [4] is “did not have influence on the phosporylative state of Akt and mTOR”. In addition, the FOXO basal activity entry in test [5] (setting [10]) is “neither HMB nor Leu were able to significantly change FOXO basal activity or amount”. Besides, the “FOXO overexpression induced by dexamethasone (reporter activity)” value in test [5] (setting [11]) was “did not have any effect on the dexamethasone-increased FOXO expression and amount”. Further, the “FOXO basal amount (nuclear FOXO3a)” value in test [6] (setting [10]) is given as “neither HMB nor Leu were able to significantly change FOXO basal activity or amount”. Also, in [6] (setting [11]), the “FOXO3a nuclear translocation induced by dexamethasone” value is “did not have any effect on the dexamethasone-increased FOXO expression and amount”. Besides, the “ERK activation (phospho-ERK/total ERK)” value in [7] (atrophic conditions (dexamethasone 5 µM)) and in test [7] (basal conditions) was “induced an activation of ERK kinase either at basal or at atrophic conditions” throughout. Further, the “counteraction of the effects of dexamethasone on Ub-C promoter activity” value in test [8] is reported as “only HMB was able to significantly counteract the effects of dexamethasone on Ub-C promoter activity”.
On to `C[C@@H]1C[C@H]2[C@@H]3CCC4=CC(=O)C=C[C@]4(C)[C@@]3(F)[C@@H](O)C[C@]2(C)[C@@]1(O)C(=O)CO` [dexamethasone], for which the fold induction at 5 µM in test [9] is above 4.

The record behind these values is patent publication EP2647374A1, “Nutritional compositions including beta-hydroxy-beta-methylbutyrate for regulating transcription factors” (Abbott Laboratories, Inc., priority 2012, dated 2013).
